# EP4682173A1, “METHOD FOR PRODUCING RADIOLABELED ANTIBODY, RADIOLABELED ANTIBODY, AND RADIOACTIVE MEDICINE” (Kagoshima University, priority 2023, dated 2024)
# Test system: EGFR
# Assay: Test Example 7: antigen binding activity by in vitro ARG (^89Zr-labeled Pmab)
# Design: species or system human
# Conditions: day after production
substance,measurement,value
Comparative Example 3: ^89Zr-panitumumab conjugate (monovalent) by the CCAP method,binding activity for EGFR,confirmed
